# Assay results taken from patent US20110300154A1, “TREATMENT OF AIRWAY HYPERREACTIVITY” (CHILDREN'S MEDICAL CENTER CORPORATION, priority 2007, published 2011).
# “Also recorded” adds a separate entry of the source.
# Legend:
# [1] = test system: iNKT cells; experiment: BAL fluid secondary outcomes after α-GalCer challenge; assay type: in vivo, cynomolgus monkeys; settings: monkeys, after α-GalCer vs vehicle
# Excerpt: (§1) Four monkeys were challenged with α-GalCer or vehicle using a cross-over design (approved by animal care and use committees at the Children's Hospital Boston and the Charles River Laboratory), which minimized the effects of genetic variation and the differing past histories in each of the outbred monkeys. […] Each adult cynomolgus monkey was anesthetized, intubated and challenged with nebulized α-GalCer or vehicle. For safety reasons and to avoid any possible toxic effects of α-GalCer that might cause AHR, a dose escalation approach was used, starting with a very low dose of α-GalCer (150 μg/m^2), similar to the lowest doses used intravenously in Phase I safety studies in humans with solid tumors. Only one dose of α-GalCer was administered to the monkeys before evaluation of AHR, because following activation with α-GalCer, iNKT cells become anergic temporarily (53). 24 hours after challenge, the monkeys were reintubated and assessed for AHR by measuring lung resistance (RL) in response to increasing concentrations of methacholine.
# [2] = test system: iNKT cells; settings: cited from earlier work
# [3] = test system: iNKT cells; experiment: AHR (lung resistance to methacholine) after nebulized α-GalCer challenge, cross-over design; assay type: in vivo, cynomolgus monkeys
# Excerpt: as §1
compound,measurement,setting,value
"CCCCCCCCCCCCCCCCCCCCCCCCCC(=O)N[C@@H](CO[C@H]1O[C@H](CO)[C@H](O)[C@H](O)[C@H]1O)[C@H](O)[C@H](O)CCCCCCCCCCCCCC [α-GalCer, α-GalactosylCeramide]",increased IL-4 in the BAL fluid (secondary outcome),[1],did not reach statistical significance
same,increased eosinophils in the BAL fluid (secondary outcome),[1],did not reach statistical significance
same,increased iNKT cells in the BAL fluid (secondary outcome),[1],did not reach statistical significance
same,increased neutrophils in the BAL fluid (secondary outcome),[1],did not reach statistical significance
same,induction of AHR in wildtype / naïve mice,[2]; administered into the lungs / intranasally,causes AHR; also recorded: results in the development of AHR
same,induction of AHR / effects in iNKT (NKT) cell deficient mice,[2]; administered into the lungs,no effects
same,induction of AHR in class II−/− mice (lack conventional CD4+ T cells),[2]; without allergen administration,functioned to induce AHR
same,percentage change in lung resistance (RL) from baseline compared to vehicle control,"[3]; combined data of four monkeys, highest dose of methacholine, paired T test p=0.0003",significantly higher
same,"AHR compared to challenge with vehicle control, monkeys responding","[3]; first very low inhaled dose 150 μg/m^2, 24 h after challenge, four monkeys",three of the four monkeys developed significantly increased AHR
same,AHR response of monkey B (non-responder to first dose),"[3]; higher dose 600 μg/m^2, 24 h after challenge",developed a significant AHR response
same,induction of airway hyperreactivity (AHR),"[3]; monkeys, α-GalCer challenge in the absence of ozone or allergen",induced AHR; also recorded: resulted in the development of significant AHR; also recorded: induces airway hyperreactivity
